Measurements reported in patent US20260373497A1, “MOLECULAR MACHINES STIMULATE INTERCELLULAR CALCIUM WAVES AND CAUSE MUSCLE CONTRACTION” (William Marsh Rice University, priority 2022, published 2026).
Values joined by “and” are separate entries in the source; they are usually repeats but may differ in a detail not shown here. Equal values may be shown once. “Also recorded” adds a separate entry of the source. Read-outs that look alike come from different tables or passages of the source.

Legend:
[1] = MM rotation rate (thermodynamics of the thermal helix inversion step); format: physicochemical; details: Table 1; from thermodynamics of thermal helix inversion
Experimental: Table 1. Properties of MM 1-4. Partition coefficients and total polar surface area were calculated using the molInspiration online calculator. milogP represents the logarithm of the partition coefficient between octanol and water, used to represent hydrophobicity (higher values are more hydrophobic). Rotation rates were provided using the thermodynamics of the thermal helix inversion step. MM structures provided for reference.
Effects of Rotation Speed and Directionality: The propensity for unidirectional MM to rotate and exert mechanical force on their environment depend principally on two factors: the rotation rate and the photoconversion efficiency. Both of these depend on MM structure. The rotation rate is determined by the half-life of the thermal helix inversion, which is driven by the steric interactions governing the passage of the rotor over the stator (Pollard et al., 2007). The photoconversion efficiency, also known as the quantum yield of photoisomerization, or ΦP, represents the proportion of photons absorbed by the molecule that drive molecular rotation (as opposed to fluorescence or non-radiative decay processes). ΦP is primarily influenced by the electronic structure. MM directionality can also be influenced by structure, as the driving force for unidirectional rotation depends upon the presence of a stereogenic center.

Hydra vulgaris [2] = assay: Regional ICW in Hydra (Protocol I); format: in vivo; details: 24 μM MM; for Regional ICW upon body column stimulation: 24 h, 405 nm, 1 s
Experimental: (§1) FIGS. 20A-20N—MM induce ICW and muscle contraction in vivo. (a) Image of a Hydra loaded into a microfluidic chamber with anatomical regions marked. Scale bar is 100 μm and applies to (a-c). (b) MM 1 (24 μM) loaded into Hydra for 24 h. (c) A Hydra expressing GCaMP7b in endodermal epitheliomuscular cells. The stimulation regions used for Protocols I and II are marked. Protocol 1 was used for body column stimulation (1 s pulse to a 10 μm diameter circular area) to trigger regional ICW. Protocol II was used for oral region stimulation (2 s pulse to the oral region, ~1000-2000 μm^2) to trigger whole-body contraction. (d) A regional ICW in a Hydra treated with MM 1 and stimulated with 405-nm light via Protocol I. The indicated times represent the time after stimulation at which the image was taken. Scale bar applies to both images and is 100 μm. (e-i) Responses observed from Hydra treated with (e) MM 1, (f) MM 2, (g) MM 3, (h) MM 4, or (i) DMSO control (“C”) and stimulated for 1 s using Protocol I. Bold, colored traces represent the average trace (n=25 across 5 Hydra). Gray traces represent individual experiments. (j) Bar graph showing ICW response rate and (k) box-and-whisker plot showing ICW delay time of Hydra stimulated using Protocol I across MM treatment conditions (n=25 experiments across at least 5 Hydra per condition). ICW responses were defined as ΔF/F0>1. (1) Representative contraction in a Hydra treated with MM 2 and stimulated via Protocol II. Scale bar applies to both images and is 100 μm. (m) Representative GCaMP7b fluorescence trace in a Hydra treated with MM 2 and stimulated using Protocol II. (n) Bar graph showing contractile response rates across treatment conditions for Hydra stimulated for 2 s using Protocol II (at least 50 experiments across ≥5 Hydra per condition). Error bars in bar graphs represent the standard error of the mean. See Example 6 for more info on the calculation of ICW and contractile response rates. For all plots, cyan lines indicate the time of stimulus with 405-nm light (9.0×10^2 W cm^−2), during which no data was collected. * P-value<0.05, ** P-value<0.01, *** P-value<0.001, **** P-value<0.0001.
(§2) Prior to stimulation experiments, Hydra were loaded with MM by incubating with solutions containing 24 μM of MM for 24 h (FIG. 20B). Distinct stimulation protocols were employed to cause either local ICW or whole-body contraction (FIG. 20C). First, treatment of MM-loaded Hydra with pulses of laser light administered to a small region of the body column (Protocol I) caused ICW emanating from the site of stimulation (FIGS. 20D and 21). Similar to ICW evoked in vitro, these ICW propagated throughout the Hydra body column according to the degree of electrical connectivity of the stimulated cells. Distinct propagation kinetics were observed when stimulating different regions of Hydra simultaneously. Second, MM activation was used to attempt to drive whole-body Hydra contractions by administering laser stimuli to the oral region (Protocol II).
(§3) Hydra Preparation, Stimulation, and Imaging: Hydra were raised in Hydra medium containing CaCl2·2H2O, MgCl2·6H2O, KNO3, NaHCO3, and MgSO4 in deionized water at 18 °C in a light-cycled (12 h light, 12 h dark) incubator. Hydra were fed with an excess of freshly brined Artemia Nauplii (Brine Shrimp Direct, Ogden, UT, #BSEP8Z) three times a week. All experiments were performed at room temperature after starving the animals for 2 days. The transgenic line expressing GCaMP6s under the Actin promoter in neurons was generated by embryonic microinjection by the Yuste lab at Columbia University (Addgene: plasmid #102558). The transgenic line expressing GCaMP7b under the Ef1α promoter in endodermal epitheliomuscular tissue was generated by embryonic microinjection in a collaboration by the Robinson lab (Rice University) and the Juliano Lab (University of California, Davis).
(§4) Hydra were incubated with chosen MM 24 h before imaging. […]

Hydra vulgaris [3] = assay: Whole-body contraction of Hydra (Protocol II); format: in vivo; details: for Contraction rate compared with light alone: Fisher's Exact Test, MM 2 P<0.00001, MM 1 P=0.0199, MM 3 P=0.5325, MM 4 P=0.0439; for Signaling / contraction in Hydra (summary): in vivo, MM + light; for Contraction peaks relative to sham stimulus: sham light, 0% laser duty cycle
Experimental: as §1, §2, §3, §4

[4] = cited from earlier work
C2C12 myotubes = assay: C2C12 myotube contraction (image subtraction); format: cell-based, mouse; details: 400-nm light 1.5 s, image subtraction
Experimental: FIG. 35—Flow chart for the image subtraction process. First, the background is subtracted from the traces to account for drift during the course of the experiment (top row). After this, the traces are zeroed at the point of stimulation, and the area is calculated from the point of stimulation until the end of the experiment to yield the contraction magnitude. (bottom row).
FIGS. 40A-40D—MMs induce contraction in C2C12 myotubes, a) Confocal microscopy images of Fluo-4 and b) image subtraction of brightfield images to highlight calcium release and contractile motion in three stimulated myotubes (indicated by the red arrows) immediately before stimulation (t=0) for 1.5 s with 400-nm light, as well as 10 s and 120 s after stimulation. Scale bar=30 μm. c) Magnitude of contraction of MM 1 compared to DMSO, MM 2, MM 3, and cells treated with 10 μM U-73122. d) Mechanism of skeletal muscle cell contraction.
This method yielded images where the pixel intensity corresponds to movement over the course of the experiment (FIG. 40C), allowing us to easily visualize and quantify contraction.

| SMILES | Rotation rate [1] | ICW delay (response) time (Hydra vulgaris [2]) [s] | Regional ICW upon body column stimulation (Hydra vulgaris [2]) | Contraction rate compared with light alone (Hydra vulgaris [3]) | Contraction peaks relative to light stimulus (Hydra vulgaris [3]; Protocol II, with light) | Signaling / contraction in Hydra (summary) (Hydra vulgaris [3]) | Contraction peaks relative to sham stimulus (Hydra vulgaris [3]) | Success Rate (contractile response rate) (Hydra vulgaris [3]; with light, Protocol II) [%] | Total Null (Hydra vulgaris [3]; with light, Protocol II) | Total Successes (contractile responses) (Hydra vulgaris [3]; with light, Protocol II) | Success Rate (contractile response rate) (Hydra vulgaris [3]; without light (sham)) [%] | Total Null (Hydra vulgaris [3]; without light (sham)) | Total Successes (contractile responses) (Hydra vulgaris [3]; without light (sham)) | Rotation rate [4] | Myotube contraction (C2C12 myotubes) |
| --- | --- | --- | --- | --- | --- | --- | --- | --- | --- | --- | --- | --- | --- | --- | --- |
| CN(C)CCNc1ccc2c(c1)Sc1ccccc1C2=C1CCc2ccc3ccccc3c21 [MM 4] | 3 × 10^6 Hz | 16.6 | consistently elicited robust regional ICW; also recorded: elicited regional ICW in Hydra despite causing only weak responses in vitro | more effective than light alone | most often occur in concert with stimuli | able to drive non-trivial signaling behavior in vivo | do not occur in concert with sham stimulus | 65 | 5 | 36 | 20 | 15 | 6 | 3 MHz | – |
| CC1Cc2cc(NCCN(C)C)c3ccccc3c2C1=C1c2ccccc2-c2ccccc21 (stereo not drawn) [MM 3] | 0.1 Hz | 15.46 | not significantly different from solvent-only controls | did not elicit contraction at a significantly higher rate than light alone | occasionally follow stimuli | Small responses were observed | do not occur in concert with sham stimulus | 38 | 2 | 18 | 12 | 17 | 12 | – | Strong cellular contraction did not occur |
| CC1Cc2ccc3ccccc3c2C1=C1c2ccccc2Sc2cc(NCCN(C)C)ccc21 (stereo not drawn) [MM 1] | 3 × 10^6 Hz | 12.76 | consistently elicited robust regional ICW | at a significantly higher rate than light alone | most often occur in concert with stimuli | – | do not occur in concert with sham stimulus | 68 | 14 | 48 | 29 | 28 | 13 | ~ 3 MHz and 3 MHz | strong contraction in C2C12 myotubes |
